Source: article PMC4721142, “Randomized controlled studies on the efficacy of antiarthritic agents in inhibiting cartilage degeneration and pain associated with progression of osteoarthritis in the rat” (Arthritis Research & Therapy, 2016)
Values joined by “and” are separate entries in the source; they are usually repeats but may differ in a detail not shown here. Equal entries are not always repeated. Marks after values point to notes of the source that are not given here.

Assays:
MMT/MCLT rat model of OA = test: MMT/MCLT trial 1 histopathology (same doses); assay type: in vivo; design: key to Tibial cartilage degeneration score, 3-zone total: sum of three tibial zone scores (each on 5-point scale); key to Total joint score w/o femur / Total joint score / Total joint score without femur: sum: cartilage degeneration scores + mean osteophyte score; details: for % decrease, bone score / % decrease, femoral cartilage degeneration score / % decrease, osteophyte measure / % decrease, osteophyte score / % decrease, significant degeneration width / % decrease, tibial score 3-zone total / % decrease, tibial score zone 1 / % decrease, tibial score zone 2 / % decrease, tibial score zone 3 / % decrease, total degeneration width / % decrease, total joint score / % decrease, total joint score w/o femur: vs saline group
Summary of the method: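 Rat knee joints were sectioned in 200-μm steps and stained with toluidine blue. Tibial cartilage degeneration was scored on a 5-point scale in three zones and summed with femoral scores, plus osteophyte scores, to give a total joint score. Results were averaged over three sections.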

MIA rat model of OA = test: MIA trial 2 digital Randall-Selitto test (daily tacrolimus 0.3 or 0.6 mg/kg i.p., curcumin 50 mg/kg p.o., fluocinolone 0.01 mg/kg s.c.; weekly clonidine 0.1 mg/kg s.c.); assay type: in vivo; details: tacrolimus 0.3 mg/kg, other drugs single dose
Description: The digital Randall-Selitto (dRS) test is said to be a reliable and repeatable measure of neuropathic, bone, and inflammatory pain behavior in several different models, including those of arthritic or joint pain [29, 31, 32]. Baseline and posttreatment values were evaluated using a dRS test device (IITC Life Science, Woodland Hills, CA, USA). Animals were allowed to acclimate to the testing room before all experimentation and for a minimum of 30 minutes before testing. To ensure that their hind limbs were accessible, the animals were gently suspended in a restraint sling. The joint compression threshold was measured once at each time point for the ipsilateral and contralateral knee joints. Pressure was applied gradually over approximately 10 seconds to the medial and lateral aspects of the knee joint. Measurements were taken from the first observed behavior of vocalization, struggle, or withdrawal. A cutoff value of 600 g was used to prevent injury to the animal.
Following isoflurane anesthesia, 50 μl (2 mg) of MIA was injected into the synovial space of the left knee. Animals were randomly assigned to groups, and pain behavior was assessed 7, 14, 21, and 28 days following MIA injection and intervention using WB with the Stoelting incapacitance meter (trial 1) or the dRS test (trials 2 and 3). […] Animals received MIA treatment and then saline control or therapeutic. […] Histopathology was performed at each time point and at study termination. All studies were conducted in accordance with the International Association for the Study of Pain Guidelines and were approved by the Algos Therapeutics, Inc. Institutional Animal Care and Use Committee (IACUC) before initiation. Those running the studies were blind to the treatments. See Additional file 1 for further details.

HeLa cells = test: HeLa cell viability (CellTiter-Glo)
Summary of the method: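 HeLa cells with and without drug were tested for viability by CellTiter-Glo luminescence as a toxicity read-out. In the companion NF-κB reporter assay, cells co-transfected with NF-κB firefly and Renilla luciferase plasmids (8:1) were read by Dual-Glo 5 h later, normalized to viable cells and expressed as fold over unstimulated, untreated cells.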

[1] = individual animals, fluocinolone 10 μg/kg, 21 days
[2] = mean, tacrolimus 0.6 mg/kg, fluocinolone 10 μg/kg
[3] = mean, tacrolimus 0.6 mg/kg, fluocinolone 10 μg/kg, listed as fluocinolone
[4] = vs group 1, fluocinolone 10 μg/kg
[5] = tacrolimus 0.6 mg/kg, fluocinolone 10 μg/kg

Compound: COc1cc(/C=C/C(=O)CC(=O)/C=C/c2ccc(O)c(OC)c2)ccc1O [Curcumin, Diferuloylmethane]
- Bone score (MMT/MCLT rat model of OA; mean, low or only dose): 3.13
- Femoral cartilage degeneration score (MMT/MCLT rat model of OA; mean, low or only dose): 2.21 and 2.21 ± 0.60
- Tibial cartilage degeneration score, 3-zone total (MMT/MCLT rat model of OA; mean, low or only dose): 6.50
- Tibial cartilage degeneration score, zone 1 (MMT/MCLT rat model of OA; mean, low or only dose): 4.08
- Tibial cartilage degeneration score, zone 2 (MMT/MCLT rat model of OA; mean, low or only dose): 2.38
- Tibial cartilage degeneration score, zone 3 (MMT/MCLT rat model of OA; mean, low or only dose): 0.04
- Tibial cartilage degeneration width, significant (MMT/MCLT rat model of OA; mean, low or only dose): 741.67 µm
- Tibial cartilage degeneration width, total (MMT/MCLT rat model of OA; mean, low or only dose): 1312.50 µm
- Tibial osteophyte measure (MMT/MCLT rat model of OA; mean, low or only dose): 592.92 µm
- Tibial osteophyte score (MMT/MCLT rat model of OA; mean, low or only dose): 4.25
- Total joint score (MMT/MCLT rat model of OA; mean, low or only dose): 12.96 and 12.96 ± 0.62
- Total joint score w/o femur (MMT/MCLT rat model of OA; mean, low or only dose): 10.75
- % decrease, bone score (MMT/MCLT rat model of OA; low or only dose): 4%
- % decrease, femoral cartilage degeneration score (MMT/MCLT rat model of OA; low or only dose): -20%
- % decrease, osteophyte measure (MMT/MCLT rat model of OA; low or only dose): -16%
- % decrease, osteophyte score (MMT/MCLT rat model of OA; low or only dose): -9%
- % decrease, significant degeneration width (MMT/MCLT rat model of OA; low or only dose): -2%
- % decrease, tibial score 3-zone total (MMT/MCLT rat model of OA; low or only dose): 1%
- % decrease, tibial score zone 1 (MMT/MCLT rat model of OA; low or only dose): 5%
- % decrease, tibial score zone 2 (MMT/MCLT rat model of OA; low or only dose): -8%
- % decrease, tibial score zone 3 (MMT/MCLT rat model of OA; low or only dose): 0%
- % decrease, total degeneration width (MMT/MCLT rat model of OA; low or only dose): 0%
- % decrease, total joint score (MMT/MCLT rat model of OA; low or only dose): -5%
- % decrease, total joint score w/o femur (MMT/MCLT rat model of OA; low or only dose): -3%
- dRS, hours after dosing with significant difference (MIA rat model of OA; day 7): 1 h
- dRS, hours after dosing with significant difference (MIA rat model of OA; day 21): Pretrt^d
- Non-toxic concentrations (HeLa cells): 0 to 33.75 M

Compound: CC1(C)O[C@@H]2C[C@H]3[C@@H]4C[C@H](F)C5=CC(=O)C=C[C@]5(C)[C@@]4(F)[C@@H](O)C[C@]3(C)[C@]2(C(=O)CO)O1 [Fluocinolone, Fluocinolone Acetonide]
- Bone score (MMT/MCLT rat model of OA; [1]): 3.00 and 2.00 and 4.00 and 1.00
- Femoral cartilage degeneration score (MMT/MCLT rat model of OA; [1]): 1.00 and 2.00 and 3.00 and 2.33 and 1.33
- Tibial cartilage degeneration score, 3-zone total (MMT/MCLT rat model of OA; [1]): 4.67 and 5.00 and 6.33 and 7.00 and 7.67 and 5.33 and 6.00
- Tibial cartilage degeneration score, zone 1 (MMT/MCLT rat model of OA; [1]): 3.00 and 4.33 and 3.33 and 4.67 and 4.00
- Tibial cartilage degeneration score, zone 2 (MMT/MCLT rat model of OA; [1]): 1.67 and 2.00 and 1.33 and 2.33 and 2.67
- Tibial cartilage degeneration score, zone 3 (MMT/MCLT rat model of OA; [1]): 0.00 and 0.33
- Tibial cartilage degeneration width, significant (MMT/MCLT rat model of OA; [1]): 466.67 μm and 433.33 μm and 633.33 μm and 766.67 μm and 800.00 μm and 566.67 μm and 666.67 μm
- Tibial cartilage degeneration width, total (MMT/MCLT rat model of OA; [1]): 1400.00 μm and 1066.67 μm and 1133.33 μm and 1000.00 μm and 1600.00 μm and 1266.67 μm and 1100.00 μm
- Tibial osteophyte measure (MMT/MCLT rat model of OA; [1]): 333.33 μm and 413.33 μm and 280.00 μm and 426.67 μm and 586.67 μm and 400.00 μm and 380.00 μm
- Tibial osteophyte score (MMT/MCLT rat model of OA; [1]): 2.00 and 2.33 and 3.00 and 1.33 and 4.67 and 2.67
- Total joint score (MMT/MCLT rat model of OA; [1]): 7.67 and 8.33 and 11.33 and 9.00 and 12.33 and 15.33 and 9.67 and 10.67
- Total joint score without femur (MMT/MCLT rat model of OA; [1]): 6.67 and 7.33 and 9.33 and 6.00 and 10.00 and 12.33 and 8.33 and 8.67
- Bone score (MMT/MCLT rat model of OA; mean, low or only dose): 2.38
- Femoral cartilage degeneration score (MMT/MCLT rat model of OA; mean, low or only dose): 1.33 and 1.33 ± 0.14
- Tibial cartilage degeneration score, 3-zone total (MMT/MCLT rat model of OA; mean, low or only dose): 6.08
- Tibial cartilage degeneration score, zone 1 (MMT/MCLT rat model of OA; mean, low or only dose): 4.17
- Tibial cartilage degeneration score, zone 2 (MMT/MCLT rat model of OA; mean, low or only dose): 1.88
- Tibial cartilage degeneration score, zone 3 (MMT/MCLT rat model of OA; mean, low or only dose): 0.04
- Tibial cartilage degeneration width, significant (MMT/MCLT rat model of OA; mean, low or only dose): 608.33 µm
- Tibial cartilage degeneration width, total (MMT/MCLT rat model of OA; mean, low or only dose): 1154.17 µm
- Tibial osteophyte measure (MMT/MCLT rat model of OA; mean, low or only dose): 455.00 µm
- Tibial osteophyte score (MMT/MCLT rat model of OA; mean, low or only dose): 3.33
- Total joint score (MMT/MCLT rat model of OA; mean, low or only dose): 10.75 and 10.75 ± 0.61
- Total joint score w/o femur (MMT/MCLT rat model of OA; mean, low or only dose): 9.42
- Bone score (MMT/MCLT rat model of OA; [2]): 2.63
- Femoral cartilage degeneration score (MMT/MCLT rat model of OA; [2]): 1.96 ± 0.77
- Tibial cartilage degeneration score, 3-zone total (MMT/MCLT rat model of OA; [2]): 5.83
- Tibial cartilage degeneration score, zone 1 (MMT/MCLT rat model of OA; [2]): 3.88
- Tibial cartilage degeneration score, zone 2 (MMT/MCLT rat model of OA; [2]): 1.92
- Tibial cartilage degeneration score, zone 3 (MMT/MCLT rat model of OA; [2]): 0.04
- Tibial cartilage degeneration width, significant (MMT/MCLT rat model of OA; [2]): 595.83 μm
- Tibial cartilage degeneration width, total (MMT/MCLT rat model of OA; [2]): 1212.50 μm
- Tibial osteophyte measure (MMT/MCLT rat model of OA; [2]): 394.17 μm
- Tibial osteophyte score (MMT/MCLT rat model of OA; [2]): 2.75
- Total joint score (MMT/MCLT rat model of OA; [2]): 10.54 ± 0.88
- Total joint score w/o femur (MMT/MCLT rat model of OA; [2]): 8.58
- Femoral cartilage degeneration score (MMT/MCLT rat model of OA; [3]): 1.96
- Total joint score (MMT/MCLT rat model of OA; [3]): 10.54
- % increase, area of viable cartilage matrix (MMT/MCLT rat model of OA; tacrolimus 0.3 mg/kg, fluocinolone 5 ug/kg): 17%
- % increase, area of viable cartilage matrix (MMT/MCLT rat model of OA; tacrolimus 0.6 mg/kg, fluocinolone 10 ug/kg): 20%
- Percentage, bone score (MMT/MCLT rat model of OA; [4]): 0.19
- Percentage, femoral cartilage degeneration score (MMT/MCLT rat model of OA; [4]): −0.07
- Percentage, osteophyte measure (MMT/MCLT rat model of OA; [4]): 0.23
- Percentage, osteophyte score (MMT/MCLT rat model of OA; [4]): 0.30
- Percentage, significant degeneration width (MMT/MCLT rat model of OA; [4]): 0.18
- Percentage, tibial score zone 1 (MMT/MCLT rat model of OA; [4]): 0.10
- Percentage, tibial score zone 2 (MMT/MCLT rat model of OA; [4]): 0.13
- Percentage, tibial score zone 3 (MMT/MCLT rat model of OA; [4]): 0.00
- Percentage, total degeneration width (MMT/MCLT rat model of OA; [4]): 0.08
- Percentage, total joint score (MMT/MCLT rat model of OA; [4]): 0.14
- Percentage, total joint score without femur (MMT/MCLT rat model of OA; [4]): 0.18
- % decrease, bone score (MMT/MCLT rat model of OA; low or only dose): 27%
- % decrease, femoral cartilage degeneration score (MMT/MCLT rat model of OA; low or only dose): 27%
- % decrease, osteophyte measure (MMT/MCLT rat model of OA; low or only dose): 11%
- % decrease, osteophyte score (MMT/MCLT rat model of OA; low or only dose): 15%
- % decrease, significant degeneration width (MMT/MCLT rat model of OA; low or only dose): 16%
- % decrease, tibial score 3-zone total (MMT/MCLT rat model of OA; low or only dose): 7%
- % decrease, tibial score zone 1 (MMT/MCLT rat model of OA; low or only dose): 3%
- % decrease, tibial score zone 2 (MMT/MCLT rat model of OA; low or only dose): 15%
- % decrease, tibial score zone 3 (MMT/MCLT rat model of OA; low or only dose): 0%
- % decrease, total degeneration width (MMT/MCLT rat model of OA; low or only dose): 12%
- % decrease, total joint score (MMT/MCLT rat model of OA; low or only dose): 13%
- % decrease, total joint score w/o femur (MMT/MCLT rat model of OA; low or only dose): 10%
- % decrease, bone score (MMT/MCLT rat model of OA; [5]): 19%
- % decrease, femoral cartilage degeneration score (MMT/MCLT rat model of OA; [5]): -7%
- % decrease, osteophyte measure (MMT/MCLT rat model of OA; [5]): 23%
- % decrease, osteophyte score (MMT/MCLT rat model of OA; [5]): 30%
- % decrease, significant degeneration width (MMT/MCLT rat model of OA; [5]): 18%
- % decrease, tibial score 3-zone total (MMT/MCLT rat model of OA; [5]): 11%
- % decrease, tibial score zone 1 (MMT/MCLT rat model of OA; [5]): 10%
- % decrease, tibial score zone 2 (MMT/MCLT rat model of OA; [5]): 13%
- % decrease, tibial score zone 3 (MMT/MCLT rat model of OA; [5]): 0%
- % decrease, total degeneration width (MMT/MCLT rat model of OA; [5]): 8%
- % decrease, total joint score (MMT/MCLT rat model of OA; [5]): 14%
- % decrease, total joint score w/o femur (MMT/MCLT rat model of OA; [5]): 18%
- dRS, hours after dosing with significant difference (MIA rat model of OA; day 14): 5^e h
